Experimental data from patent US11492359B2, “Near-infrared nerve-sparing fluorophores” (OREGON HEALTH & SCIENCE UNIVERSITY, priority 2018, dated 2022).

Assays:
[1] = system: murine brachial plexus and sciatic nerves; test: Nerve-specificity screening using systemic administration; format: in vivo; details: IV; for nerve specificity / nerve contrast (N/M vs control group) following systemic administration: 200 nmol, 4 hours prior to imaging; for toxicity upon systemic administration: mice
[2] = system: murine brachial plexus and sciatic nerves; test: Nerve-specificity screening using direct/topical administration; format: in vivo, mouse; details: 125 μM, imaged 30 minutes after staining
Method: (§1) All reagents were purchased from Sigma Aldrich, Fisher Scientific, TCI, or Ark Pharm. Unless otherwise indicated, all commercially available starting materials were used directly without further purification. Analytical thin layer chromatography (TLC) was performed on Millipore ready-to-use plates with silica gel 60 (F254, 32-63 μm). Flash chromatography was performed on Sorbent Technologies silica gel for column chromatography or on a Biotage Isolera Flash System using SNAP Ultra cartridges. High-resolution mass spectra (HRMS) were measured on a ThermoElectron LTQ-Orbitrap high resolution mass spectrometer with a dedicated Accela HPLC system, or an Agilent 6244 time-of-flight LCMS with diode array detector VL+. LCMS and Purity Characterization Mass-to-charge ratio and purity of the Oxazine compounds were characterized on an Agilent 6244 time-of-flight tandem liquid chromatography mass spectroscopy (LCMS) with diode array detector VL+. Sample (10 μL) was injected into a C18 column (Poroshell 120, 4.6×50 mm, 2.7 micron), and eluted with a solvent system of A (H2O, 0.1% FA) and B (MeCN, 01.% FA) at 0.4 mL/min, from A/B=90/10 to 5/95 over 10 min, maintained at A/B=5/95 for additional 5 min. Ions were detected in positive ion mode by setting the capillary voltage at 4 kV and gas temperature at 350° C. Purity was calculated through area under the curve analysis of the absorbance at 254 nm. UV-Vis Absorption and Fluorescence Spectroscopy. UV-Vis spectra were collected with a Cary 50 UV-Vis spectrophotometer at room temperature, using a 1-cm quartz cuvette. Fluorescence spectra were collected on a Cary Eclipse fluorescence spectrophotometer (Agilent Technologies). All absorbance spectra were reference corrected. Extinction coefficient was calculated from Beer's Law plots of absorbance versus concentration. Fluorescence spectra were corrected for the wavelength dependent response of the R928 photomultiplier tube using a manufacturer generated correction file. Relative quantum yields are reported as the average of multiple measurements using multiple references, including Oxazine 1, Oxazine 170, and Rhodamine 101. Physicochemical Property Calculation. Physicochemical partition coefficients (Log D) values at pH 7.4, number of hydrogen bond donors and acceptors, polar surface area, and the number of rotatable bonds were calculated using Marvin and JChem calculator plugins (ChemAxon, Budapest, Hungary). Nerve-Specificity Screening using Direct/Topical Administration Each compound was screened for its tissue-specificity using a previously published direct/topical administration strategy in murine brachial plexus and sciatic nerves.^1 Each compound from the Oxazine library was formulated in the previously utilized co-solvent formulation (10% DMSO, 5% Kolliphor, 65% serum and 20% phosphate buffered saline) at 125 μM. 100 μL of the formulated Oxazine were incubated on the exposed brachial plexus or sciatic nerve for 5 minutes. The fluorophore containing solution was removed and the area was irrigated with saline 18 times to remove any unbound fluorophore. Co-registered fluorescence and color images were collected of each stained area 30 minutes after Oxazine direct/topical administration using a custom built macroscopic imaging system with 620/60 nm excitation and 700/75 nm bandpass emission filters. Custom written MatLab code was used to analyze the tissue specific fluorescence where regions of interest were selected on the nerve, muscle and adipose tissue using the white light images. These regions of interest were then analyzed on the co-registered matched fluorescence images permitting assessment of the nerve to muscle and nerve to adipose ratios in blinded manner. […]

[3] = UV-Vis absorption and fluorescence spectroscopy of the Oxazine library; format: physicochemical; details: for Extinction coefficient: Beer's Law plots; for Quantum yield: relative, references Oxazine 1, Oxazine 170, Rhodamine 101
Method: as §1

Compound	nerve specificity / nerve contrast (N/M vs control group) following systemic administration [1]	nerve specificity (N/M contrast vs control group) via direct administration [2]	Max Abs [3]	Max Em [3]	Max Ex [3]	Extinction coefficient [3]	Quantum yield [3]	toxicity upon systemic administration [1]
CC/N=c1\ccc2nc3ccc(NCC)cc3oc-2c1 [LGW01-21, (E)-N-(7-(ethylamino)-3H-phenoxazin-3-ylidene)ethanaminium]	negative for nerve contrast	positive nerve specificity	617 nm	634 nm	620 nm	28745 M⁻¹ cm⁻¹	30.12%	–
CC/N=c1/cc2oc3cc(N(CC)CC)c(C)cc3nc-2cc1C [LGW01-23, (Z)—N-(7-(diethylamino)-2,8-dimethyl-3H-phenoxazin-3-ylidene)ethanaminium]	negative for nerve contrast	positive nerve specificity	645 nm	635 nm	620 nm	62445 M⁻¹ cm⁻¹	0.67%	–
CCC/N=c1/cc2oc3cc(NCCC)c(C)cc3nc-2cc1C [LGW01-64, (Z)—N-(2,8-dimethyl-7-(propylamino)-3H-phenoxazin-3-ylidene)propan-1-aminium]	negative for nerve contrast	positive nerve specificity	620 nm	638 nm	620 nm	50166 M⁻¹ cm⁻¹	42.15%	toxic upon systemic administration
CC/N=c1/cc2oc3c4c5c(cc3nc-2cc1C)CCCN5CCC4 [LGW01-99, (Z)—N-(11-methyl-2,3,6,7-tetrahydro-1H,5H,12H-quinolizino[1,9-bc]phenoxazin-12-ylidene)ethanaminium]	–	–	648 nm	667 nm	650 nm	56046 M⁻¹ cm⁻¹	10.14%	toxic upon systemic administration
CC/N=c1/cc2oc3cc(NCC)cc(C)c3nc-2c(C)c1 [LGW02-95, (E)-N-(7-(ethylamino)-1,9-dimethyl-3H-phenoxazin-3-ylidene)ethanaminium]	negative for nerve contrast	positive nerve specificity	606 nm	627 nm	605 nm	48653 M⁻¹ cm⁻¹	32.50%	–
CC1=CC(C)(C)Nc2cc3c(cc21)N=c1cc2c(cc1O3)=NC(C)(C)C=C2C [LGW03-01, 2,2,4,8,10,10-hexamethyl-10,11-dihydro-2H-dipyrido[3,2-b:2′,3′-i]phenoxazin-1-ium]	negative for nerve contrast	positive nerve specificity	677 nm	695 nm	680 nm	44453 M⁻¹ cm⁻¹	17.27%	–
CC[N+](CC)=c1ccc2nc3ccc(N4CCCC4)cc3oc-2c1 [LGW03-07, N-ethyl-N-(7-(pyrrolidin-1-yl)-3H-phenoxazin-3-ylidene)ethanaminium]	positive	negative nerve specificity	654 nm	672 nm	660 nm	52356 M⁻¹ cm⁻¹	9.28%	–
CCN(CC)c1cc2oc3cc(=[N+](CC)CC)ccc-3nc2cc1C [LGW03-23, N-(7-(diethylamino)-8-methyl-3H-phenoxazin-3-ylidene)-N-ethylethanaminium]	negative for nerve contrast	positive nerve specificity	664 nm	690 nm	645 nm	23099 M⁻¹ cm⁻¹	1.53%	–
CC[N+](CC)=c1ccc2nc3cc4c(cc3oc-2c1)NCCO4 [LGW03-37, N-(3,4-dihydro-[1,4]oxazino[2,3-b]phenoxazin-8(2H)-ylidene)-N-ethylethanaminium]	negative for nerve contrast	positive nerve specificity	646 nm	670 nm	650 nm	48849 M⁻¹ cm⁻¹	4.34%	–
CCN1CCOc2cc3c(cc21)Oc1cc2c(cc1=N3)OCC[N+]=2CC [LGW05-73, 4,8-diethyl-3,8,9,10-tetrahydro-2H-bis([1,4]oxazino)[2,3-b:3′,2′-i]phenoxazin-4-ium]	–	–	657 nm	676 nm	660 nm	55570 M⁻¹ cm⁻¹	32.95%	–
CC/N=c1/cc2oc3cc4c(cc3nc-2cc1C)CCN4CC [LGW05-76, (Z)—N-(1-ethyl-7-methyl-2,3-dihydropyrrolo[3,2-b]phenoxazin-8(1H)-ylidene)ethanaminium]	–	–	628 nm	650 nm	630 nm	45449 M⁻¹ cm⁻¹	32.68%	–
CC/N=c1/cc2oc3cc(NCC)c(F)cc3nc-2cc1C [LGW05-81, (Z)—N-(7-(ethylamino)-8-fluoro-2-methyl-3H-phenoxazin-3-ylidene)ethanaminium]	–	–	611 nm	632 nm	610 nm	58410 M⁻¹ cm⁻¹	43.02%	–
CCNc1cc2oc3cc(=[N+](CC)CC)ccc-3nc2cc1F [LGW05-82, N-ethyl-N-(7-(ethylamino)-8-fluoro-3H-phenoxazin-3-ylidene)ethanaminium]	–	–	636 nm	661 nm	640 nm	36833 M⁻¹ cm⁻¹	2.70%	–
Cc1cc2nc3cc(C)c(=N)cc-3oc2cc1N [LGW06-14, 7-amino-2,8-dimethyl-3H-phenoxazin-3-iminium]	–	–	590 nm	606 nm	590 nm	39303 M⁻¹ cm⁻¹	37.61%	–
CCN1CCc2cc3c(cc21)Oc1cc2c(cc1=N3)CC[N+]=2CC [LGW07-59, 1,9-diethyl-2,3,7,8-tetrahydro-1H-dipyrrolo[3,2-b:2′,3′-i]phenoxazin-9-ium]	–	–	649 nm	665 nm	655 nm	51130 M⁻¹ cm⁻¹	32.17%	–
CCN(CC)c1ccc2nc3ccc(=[N+](CC)CC)cc-3oc2c1.[O-][Cl+3]([O-])([O-])[O-] [OX-1, reference compound]	–	–	655 nm	671 nm	660 nm	93211 M⁻¹ cm⁻¹	7.40%	–
(Z)—N-(7-(dimethylamino)-2-methyl-3H-phenoxazin-3-ylidene)ethanaminium [LGW04-84]	–	–	637 nm	658 nm	640 nm	50981 M⁻¹ cm⁻¹	3.95%	–
N-ethyl-N-(2,2,4,8-tetramethyl-1,2-dihydro-9H-pyrido[3,2-b]phenoxazin-9-ylidene)ethanaminium [LGW01-56]	–	–	664 nm	684 nm	670 nm	38832 M⁻¹ cm⁻¹	11.68%	–
